Assay results from patent US8273775B2, “Non-steroidal brassinosteroid mimetic” (priority 2006, dated 2012).

System: gene expression in Col-0 seedling shoots
Test: Microarray analysis (ATH1 Affymetrix) after BL or abrasin treatment
Format: in vivo, Arabidopsis
Description: FIG. 14: Clustering of gene expression profiles by QT-clust analysis. Clusters illustrating the major patterns of the data sets. Points: BIK-30: 30 μM abrasin 30 min; BL-30: 1 μM brassinolide 30 min; DMSO-30: control DMSO 30 min; BIK-120: 30 μM abrasin 120 min; BL-120: 1 μM brassinolide 120 min; DMSO-120: control DMSO 120 min.
Col-0 seeds were germinated vertically on ½ MS medium for 7 days under 16 h light/8 h dark cycles. The seedlings were overlaid with liquid ½ MS medium containing 1 μM brassinolide (BL, Fuji Chemical Industries, Ltd., Toyama, Japan), 30 μM abrasin (BIK, ChemBridge Corporation) and DMSO and treated for 30 and 120 min. The shoot parts were collected for RNA isolation. All sampling points were performed in three independent experiments. RNA was extracted using RNeasy kit (Qiagene). […] total RNA per array was used to hybridise the ATH1 Affymetrix Arabidopsis arrays according to standard procedure. The overrepresentation analyses were performed using BiNGO software (Maere et al., 2005).
We performed a microarray analysis using the Arabidopsis whole genome chip (Affymetix) to determine whether abrasin activated the expression of BR-inducible genes at transcriptional level. Wild-type Col-0 seedlings were exposed to 1 μM BL, 30 μM ABRASIN and DMSO (mock-treatment) for two time points (30 min and 120 min) and the shoot parts were collected for RNA isolation. The analysis of the variance of the normalized gene expression data took in account the variability parameters affecting the expression level: type of hormone treatment, duration of treatment and the interaction between these two.

In the case of `CC(C)[C@H](C)[C@@H](O)[C@H](O)[C@@H](C)[C@H]1CC[C@H]2[C@@H]3COC(=O)[C@H]4C[C@H](O)[C@H](O)C[C@]4(C)[C@H]3CC[C@]12C` [BL, brassinolide, reference compound], the “expression of BR biosynthesis genes (CPD, DWF4, BR6OX2), Cluster 1” value (1 μM BL, 30 μM ABRASIN) is reported as “down-regulated”, the “expression of genes involved in the auxin pathway (IAA29, IAA2)” value (1 μM BL, 30 μM ABRASIN) is reported as “significantly down-regulated” and the “induction of early auxin-inducible SAUR family genes, Cluster 3” value (1 μM BL, 30 μM ABRASIN, 30 and 120 min) is reported as “induced by BL as faster as 30 min treatment”. For the same compound, the “Fold-change AT1G04330 expressed protein” value (30 min) was 1.04, the “Fold-change AT1G05470 endonuclease/exonuclease/phosphatase family protein” value (30 min) was 1.04 and the “Fold-change AT1G06520 Encodes a membrane associated mitochondrial localized protein” value (30 min) was 1.57. The “Fold-change AT1G06570 4-hydroxyphenylpyruvate dioxygenase (HPD)” value (30 min) was 0.87, the “Fold-change AT1G10550 xyloglucan:xyloglucosyl transferase” value (30 min) was 1.34 and the “Fold-change AT1G12710 F-box family protein” value (30 min) was 1.26. For the same compound, the “Fold-change AT1G12750 rhomboid family protein” value (30 min) was 1.15, the “Fold-change AT1G14130 2-oxoglutarate-dependent dioxygenase” value (30 min) was 1.26 and the “Fold-change AT1G14700 purple acid phosphatase” value (30 min) was 0.73. The “Fold-change AT1G16640 transcriptional factor B3 family protein” value (30 min) was 1.02, the “Fold-change AT1G17230 leucine-rich repeat family protein” value (30 min) was 1.08 and the “Fold-change AT1G18020; AT1G17990 [AT1G18020, 12-oxophytodienoate reductase,” value (30 min) was 0.80. For the same compound, the “Fold-change AT1G19320 pathogenesis-related thaumatin family protein” value (30 min) was 0.81, the “Fold-change AT1G20350 mitochondrial import inner membrane translocase subunit” value (30 min) was 0.99 and the “Fold-change AT1G21050 expressed protein” value (30 min) was 0.72. For the same compound, the “Fold-change AT1G21760 F-box family protein” value (30 min) was 1.02, the “Fold-change AT1G22360 UDP-glucoronosyl/UDP-glucosyl transferase family protein” value (30 min) was 0.94 and the “Fold-change AT1G23080 auxin efflux carrier protein (PIN7)” value (30 min) was 0.89. The “Fold-change AT1G26800 zinc finger (C3HC4-type RING finger) family protein,” value (30 min) was 1.51, the “Fold-change AT1G27730 zinc finger (C2H2 type) family protein” value (30 min) was 0.18 and the “Fold-change AT1G28130 encodes an IAA-amido synthase” value (30 min) was 0.85. For the same compound, the “Fold-change AT1G28190 expressed protein” value (30 min) was 0.66, the “Fold-change AT1G28480 glutaredoxin family protein” value (30 min) was 0.99 and the “Fold-change AT1G31040 zinc-binding protein-related” value (30 min) was 0.88. The “Fold-change AT1G31310 hydroxyproline-rich glycoprotein family protein” value (30 min) was 0.85, the “Fold-change AT1G31770 ABC transporter family protein” value (30 min) was 0.99 and the “Fold-change AT1G32190 expressed protein” value (30 min) was 1.00. The “Fold-change AT1G32690 expressed protein” value (30 min) was 0.92, the “Fold-change AT1G36940 expressed protein” value (30 min) was 0.89 and the “Fold-change AT1G49780 U-box domain-containing protein” value (30 min) was 0.53. For the same compound, the “Fold-change AT1G53870; AT1G53890 [AT1G53870, expressed protein” value (30 min) was 0.89, the “Fold-change AT1G54050 17.4 kDa class III heat shock protein (HSP17.4-CIII)” value (30 min) was 1.09 and the “Fold-change AT1G54200 expressed protein” value (30 min) was 1.16. For the same compound, the “Fold-change AT1G55920 serine O-acetyltransferase” value (30 min) was 1.04, the “Fold-change AT1G57560 myb family transcription factor (MYB50)” value (30 min) was 1.04 and the “Fold-change AT1G59590 expressed protein” value (30 min) was 0.95. The “Fold-change AT1G59660 nucleoporin family proteinmily” value (30 min) was 1.67, the “Fold-change AT1G62300 WRKY family transcription factor” value (30 min) was 0.63 and the “Fold-change AT1G63050 membrane bound O-acyl transferase (MBOAT) family protein” value (30 min) was 0.98. The “Fold-change AT1G66160 U-box domain-containing protein,” value (30 min) was 1.10, the “Fold-change AT1G66890 expressed protein” value (30 min) was 0.72 and the “Fold-change AT1G68330 expressed protein” value (30 min) was 0.90. For the same compound, the “Fold-change AT1G68810 basic helix-loop-helix (bHLH) family protein” value (30 min) was 1.11, the “Fold-change AT1G69160 expressed protein” value (30 min) was 1.06 and the “Fold-change AT1G70990 proline-rich family protein” value (30 min) was 1.59. For the same compound, the “Fold-change AT1G71030 Encodes a putative myb family transcription factor” value (30 min) was 0.84, the “Fold-change AT1G72060 expressed protein” value (30 min) was 0.96 and the “Fold-change AT1G72180 leucine-rich repeat transmembrane protein kinase” value (30 min) was 0.87. The “Fold-change AT1G72800 nuM1-related, contains” value (30 min) was 1.08, the “Fold-change AT1G75270 dehydroascorbate reductase” value (30 min) was 1.27 and the “Fold-change AT1G75500 nodulin MtN21 family protein” value (30 min) was 0.91. For the same compound, the “Fold-change AT1G76240 expressed protein,” value (30 min) was 0.57, the “Fold-change AT1G76410 zinc finger (C3HC4-type RING finger)” value (30 min) was 1.61 and the “Fold-change AT1G79110 expressed protein” value (30 min) was 1.09. The “Fold-change AT1G79630 protein phosphatase 2C family protein” value (30 min) was 0.78, the “Fold-change AT1G80440 kelch repeat-containing F-box family protein” value (30 min) was 1.71 and the “Fold-change AT2G01300 expressed protein” value (30 min) was 1.16. The “Fold-change AT2G01990 expressed protein,” value (30 min) was 0.91, the “Fold-change AT2G04240 zinc finger (C3HC4-type RING finger) family protein” value (30 min) was 1.46 and the “Fold-change AT2G05540 glycine-rich protein” value (30 min) was 0.92. For the same compound, the “Fold-change AT2G12290; AT4G19700 [AT2G12290, expressed protein]; [AT4G19700, expressed protein]” value (30 min) was 0.80, the “Fold-change AT2G18010 auxin-responsive family protein (SAUR10)” value (30 min) was 1.60 and the “Fold-change AT2G19800 expressed protein” value (30 min) was 1.20. The “Fold-change AT2G22860 phytosulfokines 2 (PSK2)” value (30 min) was 0.86 and the “Fold-change AT2G23180 cytochrome P450, putative” value (30 min) was 1.10.
